Results reported in patent US20240360134A1, “PYRAZOLOPYRIMIDINES AND THEIR USES AS PDGFR INHIBITORS” (priority 2021, published 2024).

target: PDGFRβ (Rattus norvegicus (Rat), UniProt Q05030); assay: PDGFRβ Cellular Assay (PDGFRb P-Y751 HTRF, PDGF-BB stimulated A10 cells); assay type: cell-based; conditions: A10 cells, 3 hours compound, 15 ng/mL PDGFbb for 10 minutes; read-out: PDGFR Cellular IC50
Experimental: Cell Culture and Preparation: Cells are cultured according to ATCC procedure (5) with the addition of the antibiotic penicillin-streptomycin. If working from frozen, cells should be thawed according to ATCC procedure. Depending on the cell density of frozen vial, cells will need time to recover from thaw. An 80% confluent T75 flask should be enough for one 384 well plate.
Stock Solutions: Rat PDGFBB. A 100 ug/mL stock is prepared by reconstituting 50 ug in 500 μL of 4 mM HCl and 0.1% BSA. It can be stored for a month at 4° C., or aliquoted out and frozen in the −20/−80° C. to avoid multiple free-thaw cycles.
1× Cisbio cell lysis buffer. The cell lysis buffer is diluted 4-fold with molecular grade water. The blocking agent is then diluted 25-fold in the diluted lysis buffer.
Antibody solutions. Equal amounts d2 and cryptate antibody are diluted 20-fold in detection buffer.
Rat PDGFBB. A working stock of 100 ng/mL is created from the stock solution in 10% FBS culture media.
Step 1: Plating Cells: Media from the A10 cell flask is aspirated. The cells are rinsed with PBS and then trypsinized to disperse the cell layer. The cells are then pelleted are resuspended to 1.25e5 cells/mL. […] Plates are covered and placed in the incubator (37° C. 5% CO2) overnight to allow cells to adhere.
Step 2: Compound Dispense: Approximately 18 hours after plating, dispense 40 nL compound onto cells using Echo. […] The plate is returned to the incubator for 3 hours.
After 10 minutes the media is removed by flicking the plate.
Step 4: Cell lysis and antibody addition: 20 uL lysis buffer per well is added to the plate via Tempest. 5 uL antibody solution is added per well via the Tempest. The plate is placed on the shaker at 230 rpm for 1 hour at room temperature.
Step 5: Detection: The plate is read using the HTRF module on the BMG Pherastar. Data is analyzed using Genedata Screener.
IC50 values are determined from a 4-parameter fit, using the following equation: Y=Bottom+(Top−Bottom)/(1+10((Log IC50−X)*Hill slope)), where X=log10 of the compound concentration; top can be defined by PC; bottom defined by NC.

Sequence of PDGFRβ (Q05030 whole entry, looked up): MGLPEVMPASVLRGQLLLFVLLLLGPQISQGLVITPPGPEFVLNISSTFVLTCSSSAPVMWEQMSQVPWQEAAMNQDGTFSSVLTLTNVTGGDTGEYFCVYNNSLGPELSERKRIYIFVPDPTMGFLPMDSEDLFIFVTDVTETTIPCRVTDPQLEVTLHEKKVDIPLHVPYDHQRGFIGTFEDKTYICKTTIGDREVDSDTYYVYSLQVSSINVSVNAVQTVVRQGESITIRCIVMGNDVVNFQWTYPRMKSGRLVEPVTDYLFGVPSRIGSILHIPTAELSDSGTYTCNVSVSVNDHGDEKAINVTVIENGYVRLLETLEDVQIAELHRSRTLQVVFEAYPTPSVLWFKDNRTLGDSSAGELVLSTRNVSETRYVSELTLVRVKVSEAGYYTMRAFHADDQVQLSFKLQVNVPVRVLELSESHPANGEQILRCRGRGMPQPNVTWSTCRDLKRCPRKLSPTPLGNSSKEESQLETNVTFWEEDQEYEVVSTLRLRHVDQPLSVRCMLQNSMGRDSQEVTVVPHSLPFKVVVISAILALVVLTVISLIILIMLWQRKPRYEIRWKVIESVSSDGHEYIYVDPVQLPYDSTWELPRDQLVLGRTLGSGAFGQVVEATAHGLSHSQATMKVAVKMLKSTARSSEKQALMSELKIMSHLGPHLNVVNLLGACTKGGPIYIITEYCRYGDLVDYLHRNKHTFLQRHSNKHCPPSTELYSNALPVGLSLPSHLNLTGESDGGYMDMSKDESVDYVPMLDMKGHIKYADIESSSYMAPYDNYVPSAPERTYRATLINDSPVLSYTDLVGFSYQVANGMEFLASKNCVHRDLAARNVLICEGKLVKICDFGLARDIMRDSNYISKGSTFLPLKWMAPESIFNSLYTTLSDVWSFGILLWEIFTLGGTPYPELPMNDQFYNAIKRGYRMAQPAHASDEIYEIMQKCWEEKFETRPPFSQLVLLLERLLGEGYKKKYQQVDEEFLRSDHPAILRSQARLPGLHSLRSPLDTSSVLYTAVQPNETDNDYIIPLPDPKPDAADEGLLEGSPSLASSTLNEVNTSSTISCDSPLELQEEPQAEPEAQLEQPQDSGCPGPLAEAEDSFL

Which IC50 does the source give for `COC(=O)C(C)(C)c1cccc(Nc2ncc3c(Nc4cc(C(=O)NCCN5CCCC5(C)C)cnc4C)nn(C)c3n2)c1` [Example 46] here?
The IC50 was 18.5 nM.

Which IC50 does the source give for `Cc1ncc(NC(=O)CN(CCO)C2CCCC2)cc1Nc1nn(C)c2nc(Nc3cnn(C)c3)ncc12` [Example 79, 2-(cyclopentyl(2-hydroxyethyl)amino)-N-(6-methyl-5-((1-methyl-6-((1-methyl-1H-pyrazol-4-yl)amino)-1H-pyrazolo[3,4-d]pyrimidin-3-yl)amino)pyridin-3-yl)acetamide] here?
Its IC50 is 23.5 nM.

Which IC50 does the source give for `COCCn1cc(Nc2ncc3c(Nc4cc(NC(=O)CN5CCC56CCC6)cnc4C)nn(C)c3n2)cn1` [Example 123, N-(5-((6-((1-(2-methoxyethyl)-1H-pyrazol-4-yl)amino)-1-methyl-1H-pyrazolo[3,4-d]pyrimidin-3-yl)amino)-6-methylpyridin-3-yl)-2-(1-azaspiro[3.3]heptan-1-yl)acetamide] here?
Its IC50 is 4.7 nM.

Which IC50 does the source give for `Cc1ncc(NC(=O)CN2CCC[C@@H]2C)cc1Nc1nn(C)c2nc(Nc3cnn(C)c3)ncc12` [Example 71, (S)—N-(6-methyl-5-((1-methyl-6-((1-methyl-1H-pyrazol-4-yl)amino)-1H-pyrazolo[3,4-d]pyrimidin-3-yl)amino)pyridin-3-yl)-2-(2-methylpyrrolidin-1-yl)acetamide] here?
Its IC50 is 1.7 nM.

How did the IC50 turn out when `Cc1ncc(NC(=O)CN2CCC(F)(F)C2)cc1Nc1nn(C)c2nc(Nc3cnn(C)c3)ncc12` [Example 75, 2-(3,3-difluoropyrrolidin-1-yl)-N-(6-methyl-5-((1-methyl-6-((1-methyl-1H-pyrazol-4-yl)amino)-1H-pyrazolo[3,4-d]pyrimidin-3-yl)amino)pyridin-3-yl)acetamide] was run?
Its IC50 is 4.9 nM.

For `Cc1ncc(NC(=O)CN(CCCO)C2CCCC2)cc1Nc1nn(C)c2nc(Nc3cnn(C)c3)ncc12` [Example 80, 2-(cyclopentyl(3-hydroxypropyl)amino)-N-(6-methyl-5-((1-methyl-6-((1-methyl-1H-pyrazol-4-yl)amino)-1H-pyrazolo[3,4-d]pyrimidin-3-yl)amino)pyridin-3-yl)acetamide], which IC50 is on record?
The IC50 was 16.6 nM.

How did the IC50 turn out when `Cc1ncc(NC(=O)CN2C[C@H](C)O[C@@H](C)C2)cc1Nc1nn(C)c2nc(Nc3cnn(C)c3)ncc12` (relative stereo) [Example 73, 2-(trans-2,6-dimethylmorpholino)-N-(6-methyl-5-((1-methyl-6-((1-methyl-1H-pyrazol-4-yl)amino)-1H-pyrazolo[3,4-d]pyrimidin-3-yl)amino)pyridin-3-yl)acetamide] was run?
The IC50 was 5.3 nM.

`COC(=O)Cc1cccc(Nc2ncc3c(Nc4cc(C(=O)NCCN5CCCC5(C)C)cnc4C)nn(C)c3n2)c1` [Example 43] was tested. Which IC50 did it give?
The IC50 was 24 nM.

Which IC50 does the source give for `Cc1ncc(NC(=O)CN2CCC(F)(F)CC2)cc1Nc1nn(C)c2nc(Nc3cnn(C)c3)ncc12` [Example 72, 2-(4,4-difluoropiperidin-1-yl)-N-(6-methyl-5-((1-methyl-6-((1-methyl-1H-pyrazol-4-yl)amino)-1H-pyrazolo[3,4-d]pyrimidin-3-yl)amino)pyridin-3-yl)acetamide] here?
Its IC50 is 3.5 nM.

Which IC50 does the source give for `Cc1ncc(NC(=O)CN2CC(F)(F)C2)cc1Nc1nn(C)c2nc(Nc3cnn(C)c3)ncc12` [Example 76, 2-(3,3-difluoroazetidin-1-yl)-N-(6-methyl-5-((1-methyl-6-((1-methyl-1H-pyrazol-4-yl)amino)-1H-pyrazolo[3,4-d]pyrimidin-3-yl)amino)pyridin-3-yl)acetamide] here?
Its IC50 is 13.1 nM.

How did the IC50 turn out when `Cc1ncc(NC(=O)CN2C[C@@H](C)O[C@@H](C)C2)cc1Nc1nn(C)c2nc(Nc3cnn(C)c3)ncc12` [Example 78, 2-(cis-2,6-dimethylmorpholino)-N-(6-methyl-5-((1-methyl-6-((1-methyl-1H-pyrazol-4-yl)amino)-1H-pyrazolo[3,4-d]pyrimidin-3-yl)amino)pyridin-3-yl)acetamide] was run?
Its IC50 is 8.3 nM.

How did the IC50 turn out when `Cc1ncc(NC(=O)CN2CCC3(CC3)C2)cc1Nc1nn(C)c2nc(Nc3cnn(C)c3)ncc12` [Example 74, N-(6-methyl-5-((1-methyl-6-((1-methyl-1H-pyrazol-4-yl)amino)-1H-pyrazolo[3,4-d]pyrimidin-3-yl)amino)pyridin-3-yl)-2-(5-azaspiro[2.4]heptan-5-yl)acetamide] was run?
Its IC50 is 1.7 nM.
